Experimental data from patent publication US20140329754A1, “COMPOSITIONS AND METHODS FOR TREATING MYELODYSPLASTIC SYNDROME” (Telik, Inc., priority 2010, published 2014).
Where a name gives a salt, the structure may show the parent alone.

Columns and labels:
[1] = tested on: Patients with an International Prognostic System Score (IPSS) Low to Intermediate-1 Risk Myelodysplastic syndrome; assay: Clinical study of ezatiostat hydrochloride tablets in IPSS low to intermediate-1 risk MDS patients: hematologic improvement (efficacy); format: in vivo, human; conditions: for Duration of HI-E Response, # Censored / Duration of HI-E Response, # Event: number of responders; for significant RBC transfusion reduction, patients: five of 11 patients; for HI-E Response Rate (95% Confidence Interval): hydrochloride
[2] = Same clinical study: non-hematologic adverse events (safety, all patients treated); format: in vivo, human
Procedure: Eighty-seven patients were randomized and treated at 23 investigational sites. After initial dose ranging in 14 patients, two dose levels were selected for further study. Subsequently, 37 patients were treated at 3 grams daily for two weeks followed by a one week rest period, and 36 patients were treated at 2 grams daily for three weeks followed by a one week rest period. The data on these 73 patients was pooled for this preliminary analysis.
The safety data is based on all patients treated.

MDS patients = conditions: patients administered lenalidomide; reported; cited from earlier work
[3] = 1 g b.i.d. 3 weeks on & 1 week off
[4] = 1.5 g b.i.d. 2 weeks on & 1 week off

**Q.** Which results are given for `CCOC(=O)[C@@H](N)CCC(=O)N[C@@H](CSCc1ccccc1)C(=O)N[C@@H](C(=O)OCC)c1ccccc1` [Telintra, ezatiostat hydrochloride]?
**A.** Duration of HI-E Response, # Censored, percent of responders [1, 3]: (66.7%); Duration of HI-E Response, # Event, percent of responders [1, 3]: (33.3%); Duration of HI-E Response, Median (95% CI) [1, 3]: 46.1 Weeks; Duration of HI-E Response, Min, Max [1, 3]: 2.4-46.1 Weeks; Time to HI-E Response, Median ([1]; 1 g b.i.d. 3 weeks on & 1 week off (N = 31)): 8.4 Weeks; Time to HI-E Response, Mean ([1]; 1 g b.i.d. 3 weeks on & 1 week off (N = 31), 6 responders): 8.9 Weeks; Duration of HI-E Response, # Censored [1, 3]: 4; Duration of HI-E Response, # Event [1, 3]: 2; Duration of HI-E Response, # Censored, percent of responders [1, 4]: (28.6%); Duration of HI-E Response, # Event, percent of responders [1, 4]: (71.4%); Duration of HI-E Response, Median (95% CI) [1, 4]: 18.4 Weeks; Duration of HI-E Response, Min, Max [1, 4]: 1.9-51.0 Weeks; Time to HI-E Response, Median ([1]; 1.5 g b.i.d. 2 weeks on & 1 week off (N = 29)): 8.1 Weeks; Time to HI-E Response, Mean ([1]; 1.5 g b.i.d. 2 weeks on & 1 week off (N = 29), 7 responders): 8.4 Weeks; Duration of HI-E Response, # Censored [1, 4]: 2; Duration of HI-E Response, # Event [1, 4]: 5; bilineage HI rate (HI-E and HI-N) ([1]; 2 of 19 patients, 95% CI 1.3-33.1): 11%; Hematologic Improvement-Neutrophil (HI-N) rate ([1]; 3 of 20 patients, 95% CI 3.2-37.9): 15%; RBC transfusion independence, patients ([1]; 4 of 38 RBC transfusion-dependent patients): 11%; clinically significant RBC transfusion reduction (reduction of 4U/8 weeks, IWG 2006), patients ([1]; 11 of 38 RBC transfusion-dependent patients): 29%; overall Hematologic Improvement-Erythroid (HI-E) rate ([1]; 13 of 60 evaluable patients, pooled 3 g/day and 2 g/day schedules, 95% CI 12.1-34.2): 22%; median hemoglobin level increase ([1]; in responders): 2.0 gram/dL; increase in response rate ([1]; lenalidomide pre-treated vs not pre-treated patients): over 100%; effect of prior Revlimid treatment on HI-E response ([1]; logistic regression analysis): enhance HI-E response; HI-E rate ([1]; no prior Revlimid, no prior DMTI, 6 of 23 patients, 95% CI 10.2%-48.4%): 26%; significant RBC transfusion reduction, patients ([1]; no prior Revlimid, no prior DMTI): 45%; HI-E rate ([1]; no prior Revlimid, prior DMTI, 0 of 17 patients, 95% CI 0%-19.5%): 0%; complete cytogenetic response (number of patients) ([1]; of the four patients with del 5q minus, one had failed prior Revlimid): two; duration of complete remission following discontinuation of therapy ([1]; one patient): more than 12 months; HI-E Response Rate (95% Confidence Interval) ([1]; patients with no prior Revlimid (lenalidomide) treatment, N=27, efficacy evaluable population): about 22%; HI-E Response Rate (95% Confidence Interval) ([1]; patients with prior Revlimid (lenalidomide) treatment, N=13, efficacy evaluable population): about 46%; median duration of HI-E response ([1]; pooled schedules): 46 weeks; range of duration of HI-E response ([1]; pooled schedules): 2-51 weeks; change in odds for a HI-E response ([1]; prior DMTI treatment, logistic regression, p=0.023): five-fold decrease; HI-E rate ([1]; prior Revlimid, no prior DMTI, 6 of 15 patients, 95% CI 16.3%-67.7%): 40%; significant RBC transfusion reduction, patients ([1]; prior Revlimid, no prior DMTI): 45%; transfusion independence, patients ([1]; prior Revlimid, no prior DMTI, three of 11 patients): 27%; cytogenetic complete responses (number of patients) ([1]; whole study): three; diarrhea, Grade 1 adverse event incidence ([2]; all patients treated): 25%; diarrhea, Grade 2 adverse event incidence ([2]; all patients treated): 7%; diarrhea, Grade 3 adverse event incidence ([2]; all patients treated): 3%; nausea, Grade 1 adverse event incidence ([2]; all patients treated): 45%; nausea, Grade 2 adverse event incidence ([2]; all patients treated): 16%; nausea, Grade 3 adverse event incidence ([2]; all patients treated): 1%; vomiting, Grade 1 adverse event incidence ([2]; all patients treated): 30%; vomiting, Grade 2 adverse event incidence ([2]; all patients treated): 12%; vomiting, Grade 3 adverse event incidence ([2]; all patients treated): 2%; incidence of GI AEs with prior DMTI treatment ([2]; patients with prior DMTI treatment): increased incidence of GI AEs

**Q.** Which “patients exhibiting clinically recognizable response” value (MDS patients) does the source give for `Nc1cccc2c1CN(C1CCC(=O)NC1=O)C2=O` (stereo not drawn) [lenalidomide, 3-(4-amino-l-oxoisoindolin-2-yl)piperidine-2,6-dione] here?
**A.** about 50%
